One assay deals with Caki-1 (kidney). As to the kind of experiment: Cell growth inhibition assay (SRB), Caki-1. Type of assay: cell-based. As to conditions: Homo sapiens, SRB method, 96 hours incubation. On the procedure:
(§1) OVCAR-3, MCF-7, PC3, HepG2, A549, HT-29 and MKN-45 were grown in RPMI1640 medium (Invitrogen, Carlsbad, Calif.) supplemented with 10% fetal bovine serum (‘FBS’), 1 mM sodium pyruvate, 10 mM HEPES and 100 U/ml penicillin and […] streptomycin (‘P/S’). MDA-MB-231, HCT116, UMRC2, Caki-1, PANC-1 and HEK293 cells were maintained in Dulbecco's modified Eagle's medium (‘DMEM’, Invitrogen) supplemented with 10% FBS, P/S, 10 mM HEPES and 2 mM L-glutamine. HUVEC was maintained in M199 supplemented with basic fibroblast growth factor (‘bFGF’) […] and FBS 20%. All cells were incubated at 37° C. under humidified 5% CO2.
(§2) The growth inhibition of the substituted quinoxalin-piperazine compounds against a variety of human tumor cells was evaluated. The relative importance of particular substituent groups on the compounds was also studied. The substituted piperazine derivative compounds, prepared as described above, were tested, along with DMSO as a control.
(§3) The growth inhibition assay of various compounds against human tumor cell lines was performed using the Sulforhodamine B (‘SRB’) method (Skehan et al., J. National Cancer Institute, 1990, 82, 1107-1112). […] Triplicate wells were used for each treatment. The cells were incubated with the various compounds for 96 hours at 37° C. in a humidified 5% CO2 atmosphere. After 96-hour incubation, cells were fixed with 10% trichloroacetic acid (‘TCA’), incubated for 1 hour at 4° C., and washed 3 times with tap water. Subsequently cells were stained with 0.4% sulforhodamine B in 1% acetic acid for 30 minutes, washed 4 times with 1% acetic acid, and air-dried again. After 5 minutes agitation in 10 mM Tris solution, the absorbance of each well was measured at 530 nm using Benchmark Plus Microplate reader (Bio-Rad Laboratories, Hercules, Calif.).
(§4) To translate the OD530 values into the number of live cells in each well, the OD530 values were compared to those on standard OD530-versus-cell number curves generated for each cell line. The percent survival was calculated using the formula: % Survival=live cell number[test]/live cell number[control]×100
(§5) The IC50 values were calculated by non-linear regression analysis.

Another assay relates to UMRC2 (kidney). As to the kind of experiment: Cell growth inhibition assay (SRB), UMRC2. Type of assay: cell-based, human. As to conditions: SRB method, 96 hours incubation. On the procedure:
as §1, §2, §3, §4, §5

The test system of the next assay is HCT116 (colon). As to the kind of experiment: Cell growth inhibition assay (SRB), HCT116. Type of assay: cell-based. As to conditions: Homo sapiens, HCT-116, SRB method, 96 hours incubation. On the procedure: as §1, §2, §3, §4, §5
The next assay relates to HepG2 (liver). Description: Cell growth inhibition assay (SRB), HepG2. Type of assay: cell-based. As to conditions: Homo sapiens, SRB method, 96 hours incubation. As for the experimental part: as §1, §2, §3, §4, §5
Another assay relates to OVCAR-3 (ovary). Description: Cell growth inhibition assay (SRB), OVCAR-3. It counts as cell-based. As to conditions: Homo sapiens, SRB method, 96 hours incubation. As for the experimental part: as §1, §2, §3, §4, §5
A further assay deals with PANC-1 (pancreas). Description: Cell growth inhibition assay (SRB), PANC-1. It counts as cell-based, human. As to conditions: SRB method, 96 hours incubation. As for the experimental part:
as §1, §2, §3, §4, §5

The subject of a further assay is MDA-MB-231 (breast). As to the kind of experiment: Cell growth inhibition assay (SRB), MDA-MB-231. Type of assay: cell-based, human. As to conditions: SRB method, 96 hours incubation. As for the experimental part:
as §1, §2, §3, §4, §5

For a further assay, the system named is PC3 (prostate). As to the kind of experiment: Cell growth inhibition assay (SRB), PC3. It counts as cell-based. As to conditions: Homo sapiens, SRB method, 96 hours incubation. As for the experimental part: as §1, §2, §3, §4, §5
For assay [1], the system named is MCF-7 (breast, hormone-dependent). As to the kind of experiment: Cell growth inhibition assay (SRB), MCF-7. Type of assay: cell-based. As to conditions: Homo sapiens, MCF7, SRB method, 96 hours incubation. As for the experimental part:
as §1, §2, §3, §4, §5

A further assay relates to HT-29 (colon). As to the kind of experiment: Cell growth inhibition assay (SRB), HT-29. As to conditions: Homo sapiens, SRB method, 96 hours incubation. It counts as cell-based. On the procedure:
as §1, §2, §3, §4, §5

The subject of the next assay is A549 (lung). As to the kind of experiment: Cell growth inhibition assay (SRB), A549. It counts as cell-based. As to conditions: Homo sapiens, SRB method, 96 hours incubation. As for the experimental part: as §1, §2, §3, §4, §5
The next assay concerns MKN-45 (stomach). As to the kind of experiment: Cell growth inhibition assay (SRB), MKN-45. Type of assay: cell-based. As to conditions: Homo sapiens, SRB method, 96 hours incubation. As for the experimental part: as §1, §2, §3, §4, §5
[2] abbreviates: Caki-1 (kidney), read-out: IC50, Caki-1.
Where [3] appears, read: Homo sapiens, UMRC2 (kidney), read-out: IC50, UMRC2.
[4] abbreviates: HCT116 (colon), read-out: IC50, HCT116.
[5] abbreviates: OVCAR-3 (ovary), read-out: IC50, OVCAR-3.
[6] abbreviates: Homo sapiens, PANC-1 (pancreas), read-out: IC50, PANC-1.
Setting [7] is: Homo sapiens, MDA-MB-231 (breast), read-out: IC50, MDA-MB-231.
The mark [8] stands for this setting: MCF-7 (breast, hormone-dependent), read-out: IC50, MCF-7.
[9] abbreviates: A549 (lung), read-out: IC50, A549.
Setting [10] is: Homo sapiens, UMRC2, read-out: Inhibition of cell growth (IC50, μM) by quinoxaline-piperazine compounds against human cancer cell lines: UMRC2.
The mark [11] stands for this setting: Homo sapiens, PANC-1, read-out: Inhibition of cell growth (IC50, μM) by quinoxaline-piperazine compounds against human cancer cell lines: PANC-1.
The mark [12] stands for this setting: Homo sapiens, MDA-MB-231, read-out: Inhibition of cell growth (IC50, μM) by quinoxaline-piperazine compounds against human cancer cell lines: MDA-MB-231.

Read-outs that look alike come from different tables or passages of the source.

On to `COc1cc(OC)cc(N2CCN(C(=O)Nc3nc4ccc(C)cc4nc3OC)CC2)c1` [Compound 131, 1-[(3-Methoxy-6-methylquinoxalin-2-yl)aminocarbonyl]-4-(3,5-dimethoxyphenyl)piperazine], for which the IC50 is 0.19 µM in the assay on Caki-1 (kidney) (setting [2]); 0.23 µM in the assay on UMRC2 (kidney) (setting [3]); 0.25 µM in the assay with HCT116 (colon) (setting [4]); 0.23 µM with HepG2 (liver) (HepG2 (liver), read-out: IC50, HepG2); 0.14 µM with OVCAR-3 (ovary) (setting [5]); 0.36 µM in the assay with PANC-1 (pancreas) (setting [6]). Besides, the IC50 came out at 0.16 µM in the assay with MDA-MB-231 (breast) (setting [7]); 0.35 µM with PC3 (prostate) (PC3 (prostate), read-out: IC50, PC3); 0.24 µM in [1] (setting [8]); 0.34 µM in the assay on HT-29 (colon) (HT-29 (colon), read-out: IC50, HT-29); 0.24 µM with A549 (lung) (setting [9]); 0.22 µM in the assay with MKN-45 (stomach) (MKN-45 (stomach), read-out: IC50, MKN-45).

For the compound `COc1nc2cc(Cl)ccc2nc1NC(=O)N1CCN(c2cccc(Cl)c2)CC1` [Compound 120, 1-[(6-Chloro-3-methoxyquinoxalin-2-yl)aminocarbonyl]-4-(3-chlorophenyl)piperazine], the IC50 in the assay on Caki-1 (kidney) (setting [2]) was found to be 0.4 µM; in the assay on UMRC2 (kidney) (setting [3]), 0.17 µM; in the assay with HCT116 (colon) (setting [4]), 0.48 µM; in the assay with OVCAR-3 (ovary) (setting [5]), 0.36 µM; in the assay on PANC-1 (pancreas) (setting [6]), 0.24 µM; in the assay on MDA-MB-231 (breast) (setting [7]), 0.17 µM. The IC50 in assay [1] (setting [8]) amounted to 0.6 µM; in the assay with A549 (lung) (setting [9]), 0.75 µM.

As to `COc1cc(OC)cc(N2CCN(C(=O)Nc3nc4cc(Cl)ccc4nc3OC)CC2)c1` [Compound 26, 1-[(6-Chloro-2-methoxyquinoxalin-3-yl)aminocarbonyl]-4-(3,5-dimethoxyphenyl)piperazine], the IC50 stood at 0.053 µM with Caki-1 (kidney) (Caki-1, read-out: Inhibition of cell growth (IC50, μM) by quinoxaline-piperazine compounds against human cancer cell lines: Caki-1); 0.065 µM with UMRC2 (kidney) (setting [10]); 0.068 µM in the assay with HCT116 (colon) (HCT116, read-out: Inhibition of cell growth (IC50, μM) by quinoxaline-piperazine compounds against human cancer cell lines: HCT116); 0.063 µM in the assay with HepG2 (liver) (HepG2, read-out: Inhibition of cell growth (IC50, μM) by quinoxaline-piperazine compounds against human cancer cell lines: HepG2); 0.042 µM in the assay with OVCAR-3 (ovary) (OVCAR-3, OVCAR3, read-out: Inhibition of cell growth (IC50, μM) by quinoxaline-piperazine compounds against human cancer cell lines: OVCAR3); 0.098 µM in the assay on PANC-1 (pancreas) (setting [11]). Further, the IC50 stood at 0.05 µM in the assay with MDA-MB-231 (breast) (setting [12]); 0.076 µM in the assay on PC3 (prostate) (PC-3, read-out: Inhibition of cell growth (IC50, μM) by quinoxaline-piperazine compounds against human cancer cell lines: PC-3); 0.076 µM in [1] (read-out: Inhibition of cell growth (IC50, μM) by quinoxaline-piperazine compounds against human cancer cell lines: MCF7); 0.079 µM in the assay on HT-29 (colon) (HT-29, HT29, read-out: Inhibition of cell growth (IC50, μM) by quinoxaline-piperazine compounds against human cancer cell lines: HT29); 0.073 µM in the assay on A549 (lung) (A549, read-out: Inhibition of cell growth (IC50, μM) by quinoxaline-piperazine compounds against human cancer cell lines: A549); 0.064 µM with MKN-45 (stomach) (MKN-45, MKN45, read-out: Inhibition of cell growth (IC50, μM) by quinoxaline-piperazine compounds against human cancer cell lines: MKN45).

Turning to `COc1nc2ccc(Cl)cc2nc1NC(=O)N1CCN(c2cccc(Cl)c2)CC1` [Compound 36, 1-[(6-Chloro-2-methoxyquinoxalin-3-yl)aminocarbonyl]-4-(3-chlorophenyl)piperazine], the IC50 was determined as 0.31 µM in the assay on UMRC2 (kidney) (setting [10]), 0.93 µM in the assay with PANC-1 (pancreas) (setting [11]) and 0.17 µM in the assay on MDA-MB-231 (breast) (setting [12]).

For the compound `COc1nc2ccc(C)cc2nc1NC(=O)N1CCN(c2cccc(C)c2)CC1` [Compound 50, 1-[(2-Methoxy-6-methylquinoxalin-3-yl)aminocarbonyl]-4-(3-methylphenyl)piperazine], the IC50 in the assay on UMRC2 (kidney) (setting [10]) came to 0.4 µM; in the assay with PANC-1 (pancreas) (setting [11]) it was 1.04 µM; in the assay with MDA-MB-231 (breast) (setting [12]) it was 0.22 µM.

As for `COc1cccc(N2CCN(C(=O)Nc3nc4ccc(Cl)cc4nc3OC)CC2)c1` [Compound 108, 1-[(6-Chloro-3-methoxyquinoxalin-2-yl)aminocarbonyl]-4-(3-methoxyphenyl)piperazine], the IC50 in the assay with UMRC2 (kidney) (setting [3]), with PANC-1 (pancreas) (setting [6]) and with MDA-MB-231 (breast) (setting [7]) was more than 1 µM each time.

For `COc1ccc2nc(NC(=O)N3CCN(c4cccc(C)c4)CC3)c(OC)nc2c1` [Compound 155, 1-[(3,6-Dimethoxyquinoxalin-2-yl)aminocarbonyl]-4-(3-methylphenyl)piperazine], the IC50 was found to be 0.39 µM with UMRC2 (kidney) (setting [3]), 0.96 µM in the assay with PANC-1 (pancreas) (setting [6]) and 0.23 µM in the assay with MDA-MB-231 (breast) (setting [7]).

On to `COc1nc2ccc(Cl)cc2nc1NC(=O)N1CCN(c2cccc(C(F)(F)F)c2)CC1` [Compound 32, 1-[(6-Chloro-2-methoxyquinoxalin-3-yl)aminocarbonyl]-4-(3-trifluorotolyl)piperazine], for which the IC50 with UMRC2 (kidney) (UMRC2, read-out: Inhibition of cell growth (IC50, μM) by quinoxaline-piperazine compounds against human cancer cell lines: UMRC2) is 1 µM; with PANC-1 (pancreas) (PANC-1, read-out: Inhibition of cell growth (IC50, μM) by quinoxaline-piperazine compounds against human cancer cell lines: PANC-1), more than 1 µM; in the assay on MDA-MB-231 (breast) (MDA-MB-231, read-out: Inhibition of cell growth (IC50, μM) by quinoxaline-piperazine compounds against human cancer cell lines: MDA-MB-231), 1 µM.

In the case of `COc1cccc(N2CCN(C(=O)Nc3nc4cc(OC)ccc4nc3OC)CC2)c1` [Compound 66, 1-[(2,6-Dimethoxyquinoxalin-3-yl)aminocarbonyl]-4-(3-methoxyphenyl)piperazine], the IC50 with UMRC2 (kidney) (setting [10]), in the assay on PANC-1 (pancreas) (setting [11]) and with MDA-MB-231 (breast) (setting [12]) was more than 1 µM each time.

For the compound `COc1ccc2nc(NC(=O)N3CCN(c4cccc(Cl)c4)CC3)c(OC)nc2c1` [Compound 162, 1-[(3,6-Dimethoxyquinoxalin-2-yl)aminocarbonyl]-4-(3-chlorophenyl)piperazine], the values for the IC50 in the assay with UMRC2 (kidney) (setting [3]), in the assay with PANC-1 (pancreas) (setting [6]) and with MDA-MB-231 (breast) (setting [7]) were 0.29 µM, 0.46 µM and 0.23 µM, respectively.

Regarding `COc1cccc(N2CCN(C(=O)Nc3nc4ccc(C)cc4nc3OC)CC2)c1` [Compound 129, 1-[(3-Methoxy-6-methylquinoxalin-2-yl)aminocarbonyl]-4-(3-methoxyphenyl)piperazine], the IC50 in the assay with UMRC2 (kidney) (setting [3]), in the assay with PANC-1 (pancreas) (setting [6]) and in the assay with MDA-MB-231 (breast) (setting [7]) was more than 1 µM throughout.

With `COc1cccc(N2CCN(C(=O)Nc3nc4cc(Cl)ccc4nc3OC)CC2)c1` [Compound 24, 1-[(6-Chloro-2-methoxyquinoxalin-3-yl)aminocarbonyl]-4-(3-methoxyphenyl)piperazine], the IC50 in the assay with UMRC2 (kidney) (setting [10]) was 0.68 µM; with PANC-1 (pancreas) (setting [11]), 1.66 µM; in the assay with MDA-MB-231 (breast) (setting [12]), 0.41 µM.
